In PMC10221159, “Investigation of N-Acetyltransferase 2-Mediated Drug Interactions of Amifampridine: In Vitro and In Vivo Evidence of Drug Interactions with Acetaminophen” (Pharmaceutics, 2023):
Read-outs that look alike come from different tables or passages of the source. Each block holds one compound with its values, some of them ahead of it.

What was measured:
[1] = In vivo pharmacokinetic interaction study in rats (plasma); set-up: species or system rat; conditions: for AUC(0-inf) / AUC(0-t) / Cmax / MRT / Tmax / half-life / CL renal: male, Sprague-Dawley, rat, po, 2 mg/kg, oral amifampridine 2 mg/kg; for AUC(0-inf) / AUC(0-t) / Cmax / MRT / Tmax / half-life: plasma; for CL renal: urine and plasma, renal clearance
Procedure: Male Sprague Dawley (SD) rats (7–8 weeks old, 260–330 g) were purchased from Orient Bio, Inc. (Seongnam, Korea). The rats were housed under a light/dark cycle for 12 h and were left for at least a week before the experiment to adapt to the laboratory environment. Water and food were provided ad libitum. The rats were fasted overnight with free access to water prior to pharmacokinetic studies. The protocols for animal experiments were approved in accordance with the Guidelines for Animal Care and Use of Gachon University (approval no.: GIACUC-R2021006; 13 May 2021).
The rats were anesthetized with a mixture of Rompun and Zoletil by intramuscular injection and received an intraperitoneal injection of vehicle (40:60 PEG400:normal saline; n = 8) or 100 mg/kg acetaminophen (n = 8). After 10 min, 2 mg/kg amifampridine (dissolved in saline) was administered orally. Blood samples were collected at 0, 5, 15, 30, 60, 90, 120, 240, and 360 min and centrifuged at 14,000 rpm for 15 min at 4 °C. For analysis of amifampridine and 3-N-acetylamifampridine, 50 μL of plasma samples was mixed with 100 μL IS solution (5 ng/mL ondansetron in acetonitrile) and the mixture was vortexed followed by centrifugation at 14,000 rpm for 15 min at 4 °C. For the analysis of acetaminophen, 200 μL of IS (tolbutamide 200 ng/mL in methanol) was added to the plasma samples which were diluted 10-fold using the blank plasma and then vortexed for one minute. Further, the samples were centrifuged at 14,000 rpm for 15 min at 4 °C. The supernatants were transferred to LC vials for quantification.
Non-compartment analysis (NCA) was performed to calculate the pharmacokinetic parameters for the in vivo study using WinNonlin (Version 8.3. (Pharsight Corporation, Mountain View, CA, USA)). The area under the plasma concentration–time curve from time 0 to infinity (AUCinf) was calculated by the linear trapezoidal method and standard extrapolation using λ, where λ represents the slope of the terminal phase in a semi-log graph for plasma concentration–time profiles. Renal clearance (CLr) was determined by dividing the accumulated amount of drug excreted in the urine by AUCinf.

[2] = Urinary excretion of amifampridine and 3-N-acetylamifampridine in rats; format: in vivo, rat; conditions: for amount excreted into the urine for up to 4 h: oral amifampridine 2 mg/kg
Procedure: Urine samples were collected at intervals of 0–4, 4–8, and 8–24 h after the administration of amifampridine to control and acetaminophen-treated rats (n = 6), as described above, and were diluted 500-fold with potassium phosphate buffer. An amount of 200 μL of IS was then added to the samples and vortexed for a minute. After centrifugation at 14,000 rpm for 15 min at 4 °C, the supernatant was transferred into vials for quantification of amifampridine and 3-N-acetylamifampridine.

[3] = Tissue distribution of amifampridine and 3-N-acetylamifampridine in rats; format: in vivo, rat; conditions: rat, 60 min after oral amifampridine 2 mg/kg
Procedure: To investigate the effects of acetaminophen on the tissue distribution of amifampridine and 3-N-acetylamifampridine, rats were sacrificed at 60 min after administration of amifampridine in control and acetaminophen-treated rats (n = 6) as mentioned above, and the tissues, including liver, kidney, heart, lungs, spleen, brain, and muscle tissues, were obtained. Tissue samples were homogenized using a Wheaton^TM Dounce tissue grinder (Wheaton Millipore, Billerica, MA, USA) after adding a three-fold volume of PBS. An amount of 100 μL of tissue homogenates was transferred to the tube and 200 μL of IS solution was then added and vortexed followed by centrifugation at 14,000 rpm for 15 min at 4 °C. The supernatants were transferred to LC vials for quantification. For muscle samples, the supernatant was concentrated using a desiccator and reconstituted with the mobile phase solvent.

[4] = humans, cited from earlier work
[5] = set-up: method as in earlier work; conditions: metabolite of amifampridine; cited from earlier work
[6] = biological target: T1, NAT2 (Homo sapiens, UniProt P11245); experiment: Inhibition of amifampridine acetylation to 3-N-acetylamifampridine by NAT2 inhibitors, human liver S9 fraction; format: biochemical; conditions: amifampridine 50 μM, 15 min
T1 construct: in vitro using S9 fractions obtained from human, rat, and mouse livers; from tissue; host or cells: human liver S9 fraction
T1 sequence (P11245 1-290): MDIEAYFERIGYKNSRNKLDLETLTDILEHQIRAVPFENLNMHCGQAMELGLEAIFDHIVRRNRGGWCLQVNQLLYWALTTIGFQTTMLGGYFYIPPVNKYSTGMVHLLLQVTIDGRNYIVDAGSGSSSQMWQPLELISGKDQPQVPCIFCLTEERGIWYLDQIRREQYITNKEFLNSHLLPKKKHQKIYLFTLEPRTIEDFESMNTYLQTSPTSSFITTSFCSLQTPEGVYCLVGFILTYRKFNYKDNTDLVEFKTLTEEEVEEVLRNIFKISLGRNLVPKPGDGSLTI
Procedure: Then, the NAT2 inhibitors (final concentrations of 0, 1, 5, 10, 50, 100, 500, 1000, and 5000 μM) and amifampridine (final concentration of 50 μM) were added to the reaction mixture and incubated for 15 min at 37 °C. An amount of 50 μL of the mixture was then transferred into the tube and mixed with 100 μL of IS (5 ng/mL ondansetron in acetonitrile). The mixture was vortexed and centrifuged at 14,000 rpm for 15 min at 4 °C. The supernatant was transferred into vials for HPLC-MS/MS analysis and the concentration of 3-N-acetylamifampridine was determined.

[7] = tested on: NAT2; conditions: previous report; cited from earlier work
[8] = acetaminophen-treated group (100 mg/kg ip)

- change of AUCinf after pre-treatment with acetaminophen ([1]; acetaminophen-treated vs control rats): not significantly altered
- decrease in Cmax ([1]; after pre-treatment with acetaminophen vs control, p < 0.05): 27.11%
- decrease of AUCm/AUCp ([1]; after pretreatment with acetaminophen): 65%
- AUC(0-inf) [1, 8]: 3690 ng·h/mL
- AUC(0-t) [1, 8]: 3010 ng·h/mL
- Cmax [1, 8]: 880 ± 260 ng/mL
- MRT [1, 8]: 3.84 h
- Tmax [1, 8]: 1.5 h
- half-life [1, 8]: 2.38 ± 0.91 h
- AUC(0-inf) ([1]; control group): 3690 ng·h/mL
- AUC(0-t) ([1]; control group): 3410 ng·h/mL
- Cmax ([1]; control group): 1210 ± 240 ng/mL
- MRT ([1]; control group): 2.65 h
- Tmax ([1]; control group): 1.31 h
- half-life ([1]; control group): 1.42 ± 0.36 h
- CL renal [1, 8]: 3.58 ± 0.6 mL/min
- CL renal ([1]; control group): 2.94 ± 1.55 mL/min
- total amount excreted via urine for up to 24 h, difference between groups ([2]; control vs acetaminophen-treated rats): not significantly different
- amount excreted into the urine for up to 4 h ([2]; after pre-treatment with acetaminophen): 12.2%
- amount excreted into the urine for up to 4 h ([2]; control rats): 49.9%
- Kp at 1 h ([3]; Sprague Dawley, brain, acetaminophen 100 mg/kg, read-out: Tissue partition coefficient (Kp), Brain): 0.2 ± 0.2
- Kp at 1 h ([3]; Sprague Dawley, brain, control, read-out: Tissue partition coefficient (Kp), Brain): 0.2 ± 0.2
- Kp at 1 h ([3]; Sprague Dawley, heart, acetaminophen 100 mg/kg, read-out: Tissue partition coefficient (Kp), Heart): 1.6 ± 0.4
- Kp at 1 h ([3]; Sprague Dawley, heart, control, read-out: Tissue partition coefficient (Kp), Heart): 1.8 ± 0.5
- Kp at 1 h ([3]; Sprague Dawley, lungs, acetaminophen 100 mg/kg, read-out: Tissue partition coefficient (Kp), Lungs): 2.7 ± 0.9
- Kp at 1 h ([3]; Sprague Dawley, lungs, control, read-out: Tissue partition coefficient (Kp), Lungs): 2.9 ± 0.5
- Kp at 1 h ([3]; Sprague Dawley, spleen, acetaminophen 100 mg/kg, read-out: Tissue partition coefficient (Kp), Spleen): 3 ± 0.9
- Kp at 1 h ([3]; Sprague Dawley, spleen, control, read-out: Tissue partition coefficient (Kp), Spleen): 3.3 ± 0.7
- Kp at 1 h ([3]; male, Sprague-Dawley, kidney, acetaminophen 100 mg/kg, read-out: Tissue partition coefficient (Kp), Kidney): 5.1 ± 1.6
- Kp at 1 h ([3]; male, Sprague-Dawley, kidney, control, read-out: Tissue partition coefficient (Kp), Kidney): 16.6 ± 12.4
- Kp at 1 h ([3]; male, Sprague-Dawley, liver, acetaminophen 100 mg/kg, read-out: Tissue partition coefficient (Kp), Liver): 3 ± 0.8
- Kp at 1 h ([3]; male, Sprague-Dawley, liver, control, read-out: Tissue partition coefficient (Kp), Liver): 6.5 ± 5
- Kp at 1 h ([3]; male, Sprague-Dawley, muscle, acetaminophen 100 mg/kg, read-out: Tissue partition coefficient (Kp), Muscle): 0.9 ± 0.3
- Kp at 1 h ([3]; male, Sprague-Dawley, muscle, control, read-out: Tissue partition coefficient (Kp), Muscle): 0.9 ± 0.2
Structure (SMILES): CC(=O)Nc1cnccc1N [3-N-acetylamifampridine]
- dose excreted via the urine within 24 h ([4]; after administration of amifampridine): 74.0–81.7%
- elimination half-life [4]: ~4 h
- pharmacological activity [5]: pharmacologically inactive

- IC50 [6]: 2.45 ± 0.258 mM
Structure (SMILES): CN/C(=N/CCSCc1nc[nH]c1C)NC#N [cimetidine]
- IC50 [7]: 2.06 mM

- IC50 [6]: 0.843 ± 0.16 mM
Structure (SMILES): COc1cc(C(C)=O)ccc1O [apocynin]
- IC50 [7]: 0.69 mM
